Data as given in PubChem BioAssay AID330 (DTP/NCI, 2004).
Several values for one entry are separate records, joined by “and”; a condition that tells them apart may be missing. Equal entries are not always repeated. Inconclusive results and toxic doses are left out. How the source made its calls: active means survival T/C of 150% or more; inactive means T/C below 125% in these data.

Test system: P388 leukemia ip, CD2F1 mice, survival T/C
Assay: NCI In Vivo Anticancer Drug Screen. Data for tumor model P388 Leukemia (intraperitoneal) in CD2F1 (CDF1) mice
Details: endpoint: median survival time, higher = longer survival
Summary of the method: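 Mice carrying the transplanted tumor received test compound or vehicle. Survival was recorded in each group, and the value is the treated-group measurement divided by that of the vehicle-treated control group.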

[1] = dose: 60.0 mg/kg/injection, schedule: Q01DX005 (ip), vehicle: saline with Tween-80
[2] = dose: 120.0 mg/kg/injection, schedule: Q01DX005 (ip), vehicle: saline with Tween-80
[3] = dose: 240.0 mg/kg/injection, schedule: Q01DX005 (ip), vehicle: saline with Tween-80
[4] = dose: 60.0 mg/kg/injection, schedule: Q01DX005 (ip), vehicle: Klucel (hydroxypropylcellulose) (HPC)
[5] = dose: 120.0 mg/kg/injection, schedule: Q01DX005 (ip), vehicle: Klucel (hydroxypropylcellulose) (HPC)
[6] = dose: 50.0 mg/kg/injection, schedule: Q01DX009 (ip), vehicle: saline with Tween-80
[7] = dose: 100.0 mg/kg/injection, schedule: Q01DX009 (ip), vehicle: saline with Tween-80
[8] = dose: 200.0 mg/kg/injection, schedule: Q01DX009 (ip), vehicle: saline with Tween-80
[9] = dose: 50.0 mg/kg/injection, schedule: Q01DX005 (ip), vehicle: saline with Tween-80
[10] = dose: 100.0 mg/kg/injection, schedule: Q01DX005 (ip), vehicle: saline with Tween-80
[11] = dose: 200.0 mg/kg/injection, schedule: Q01DX005 (ip), vehicle: saline with Tween-80
[12] = dose: 12.5 mg/kg/injection, schedule: Q01DX005 (ip), vehicle: Klucel (hydroxypropylcellulose) (HPC)
[13] = dose: 25.0 mg/kg/injection, schedule: Q01DX005 (ip), vehicle: Klucel (hydroxypropylcellulose) (HPC)
[14] = dose: 50.0 mg/kg/injection, schedule: Q01DX005 (ip), vehicle: Klucel (hydroxypropylcellulose) (HPC)

Measured: T/C

CC(/C=N\NC(=S)SCc1ccccc1)=N/N=C(N)N
inactive: dose: 6.25 mg/kg/injection, schedule: Q01DX009 (ip), vehicle: saline with Tween-80 101 % of control | dose: 12.5 mg/kg/injection, schedule: Q01DX009 (ip), vehicle: saline with Tween-80 95 % of control | dose: 25.0 mg/kg/injection, schedule: Q01DX009 (ip), vehicle: saline with Tween-80 101 % of control | dose: 50.0 mg/kg/injection, schedule: Q01DX009 (ip), vehicle: saline 91 % of control | dose: 100.0 mg/kg/injection, schedule: Q01DX009 (ip), vehicle: saline 92 % of control

NC(=S)Nc1cccc(C(F)(F)F)c1
inactive: dose: 100.0 mg/kg/injection, schedule: Q01DX009 (ip), vehicle: other 104 % of control | dose: 200.0 mg/kg/injection, schedule: Q01DX009 (ip), vehicle: other 115 % of control

Nc1ncnc2c1ccn2Cc1c(Cl)cccc1Cl
inactive: dose: 50.0 mg/kg/injection, schedule: Q01DX005 (ip), vehicle: distilled water + alcohol 101 % of control | dose: 100.0 mg/kg/injection, schedule: Q01DX005 (ip), vehicle: distilled water + alcohol 101 % of control | dose: 200.0 mg/kg/injection, schedule: Q01DX005 (ip), vehicle: distilled water + alcohol 98 % of control

N/C(CC(=O)Nc1ccc(F)cc1)=N\O
inactive: [1] 108 % of control | [2] 102 % of control | [3] 100 % of control

COc1ccc(C)cc1N=NC1C(=O)N(C(=O)CC(=O)Nc2cccc(C)c2)N=C1C (stereo not drawn)
inactive: [4] 95 % of control | [5] 89 % of control | dose: 240.0 mg/kg/injection, schedule: Q01DX005 (ip), vehicle: Klucel (hydroxypropylcellulose) (HPC) 90 % of control

Cc1ccc(NC(=O)N(NC(=O)NNc2ccccc2)c2ccccc2)c(C)c1
inactive: [6] 99 % of control | [7] 93 % of control | [8] 92 % of control

O=C1OC(=O)C2CC3OC3CC12 (stereo not drawn)
inactive: dose: 12.5 mg/kg/injection, schedule: Q01DX001 (ip), vehicle: saline 104 % of control | dose: 25.0 mg/kg/injection, schedule: Q01DX001 (ip), vehicle: saline 109 % of control | dose: 50.0 mg/kg/injection, schedule: Q01DX001 (ip), vehicle: saline 100 % of control

COc1cc(/C=C2\SC(=O)N(C)C2=O)ccc1O
inactive: [6] 104 % of control | [7] 90 % of control | [8] 87 % of control

CNc1ncnc2c1cnn2C
inactive: [6] 95 % of control | dose: 100.0 mg/kg/injection, schedule: Q04DX003 (ip), vehicle: saline 104 % of control | dose: 200.0 mg/kg/injection, schedule: Q04DX003 (ip), vehicle: saline 109 % of control

Cc1c[n+]([O-])n(-c2ccccc2)n1
inactive: [9] 101 % of control | [10] 97 % of control | [11] 103 % of control

CC1=CC(C/C(C)=C/COc2ccc3ccc(=O)oc3c2)OC1=O (stereo not drawn)
inactive: [12] 87 % of control | [13] 90 % of control | [14] 97 % of control

O=C(Nc1ccc(N=Nc2ccccc2)cc1)SCCO
inactive: [9] 102 % of control | [10] 108 % of control

O=S(=O)(O)c1cc2nonc2c2ccccc12
inactive: [9] 98 % of control | [10] 98 % of control | [11] 95 % of control

CCOC(=O)NC12c3ccccc3C(c3ccccc31)C(C(=O)O)C2C(=O)O (stereo not drawn)
inactive: [7] 118 % of control | [8] 118 % of control | dose: 400.0 mg/kg/injection, schedule: Q01DX009 (ip), vehicle: saline with Tween-80 118 % of control

Cc1cc(C)c(COCc2cc(C)c(C)cc2C)cc1C
inactive: dose: 25.0 mg/kg/injection, schedule: Q01DX009 (ip), vehicle: water 86 % of control | dose: 100.0 mg/kg/injection, schedule: Q01DX009 (ip), vehicle: water 90 % of control | dose: 200.0 mg/kg/injection, schedule: Q01DX009 (ip), vehicle: water 106 % of control | dose: 400.0 mg/kg/injection, schedule: Q01DX009 (ip), vehicle: water 104 % of control

COc1ccc(C(=O)SCCCN=C(N)N)cc1
inactive: [9] 103 % of control | [10] 97 % of control

COc1c(OC)c2oc(=O)c3cc4c(c5oc(=O)c(c1OC)c2c53)OCO4
inactive: dose: 1.75 mg/kg/injection, schedule: Q01DX005 (ip), vehicle: other 88 % of control | dose: 3.5 mg/kg/injection, schedule: Q01DX005 (ip), vehicle: other 86 % of control | dose: 7.0 mg/kg/injection, schedule: Q01DX005 (ip), vehicle: other 86 % of control

C=C1C(=O)OC2CC(C)(O)C(O)CC3OC3(C)CC(OC(=O)/C(C)=C/C)C12 (stereo not drawn)
inactive: dose: 1.25 mg/kg/injection, schedule: Q01DX005 (ip), vehicle: Klucel (hydroxypropylcellulose) (HPC) 99 % of control | dose: 2.5 mg/kg/injection, schedule: Q01DX005 (ip), vehicle: Klucel (hydroxypropylcellulose) (HPC) 101 % of control | dose: 5.0 mg/kg/injection, schedule: Q01DX005 (ip), vehicle: Klucel (hydroxypropylcellulose) (HPC) 108 % of control | dose: 10.0 mg/kg/injection, schedule: Q01DX005 (ip), vehicle: Klucel (hydroxypropylcellulose) (HPC) 110 % of control

COC(=O)CCSC(=S)Nc1ccc(Br)cc1
inactive: [14] 100 % of control | dose: 100.0 mg/kg/injection, schedule: Q01DX005 (ip), vehicle: Klucel (hydroxypropylcellulose) (HPC) 100 % of control | dose: 200.0 mg/kg/injection, schedule: Q01DX005 (ip), vehicle: Klucel (hydroxypropylcellulose) (HPC) 102 % of control

CCC1(/C=N/NC(N)=S)NC(=O)NC1=O (stereo not drawn)
inactive: [9] 93 % of control | [10] 89 % of control | [11] 94 % of control

Cc1cc2n(n1)C(=O)CC(=O)C2
inactive: [1] 98 % of control | [2] 100 % of control | [3] 109 % of control

C=C1C(=O)OC2CCCCC12 (stereo not drawn)
inactive: dose: 50.0 mg/kg/injection, schedule: Q04DX003 (ip), vehicle: Klucel (hydroxypropylcellulose) (HPC) 104 % of control | dose: 100.0 mg/kg/injection, schedule: Q04DX003 (ip), vehicle: Klucel (hydroxypropylcellulose) (HPC) 105 % of control | dose: 200.0 mg/kg/injection, schedule: Q04DX003 (ip), vehicle: Klucel (hydroxypropylcellulose) (HPC) 101 % of control

COc1ccc(C2CC(c3cc(C)cc(Br)c3O)=NO2)cc1 (stereo not drawn)
inactive: dose: 100.0 mg/kg/injection, schedule: Q04DX002 (ip), vehicle: saline with Tween-80 93 % of control | dose: 200.0 mg/kg/injection, schedule: Q04DX002 (ip), vehicle: saline with Tween-80 88 % of control | dose: 400.0 mg/kg/injection, schedule: Q04DX002 (ip), vehicle: saline with Tween-80 92 % of control

O=C(NC(=O)c1ccccc1F)Nc1ccc(Cl)cc1
inactive: dose: 50.0 mg/kg/injection, schedule: Q01DX009 (ip), vehicle: Klucel (hydroxypropylcellulose) (HPC) 101 % of control | dose: 100.0 mg/kg/injection, schedule: Q01DX009 (ip), vehicle: Klucel (hydroxypropylcellulose) (HPC) 100 % of control | dose: 200.0 mg/kg/injection, schedule: Q01DX009 (ip), vehicle: Klucel (hydroxypropylcellulose) (HPC) 91 % of control

Nc1ccc(-c2csc(Nc3ccnc4cc(Cl)ccc34)n2)cc1
inactive: [9] 99 % of control | [10] 93 % of control | [11] 88 % of control

CC(=O)c1c(C)cc2cccc(O)c2c1O
inactive: dose: 15.0 mg/kg/injection, schedule: Q01DX005 (ip), vehicle: Klucel (hydroxypropylcellulose) (HPC) 105 % of control | dose: 30.0 mg/kg/injection, schedule: Q01DX005 (ip), vehicle: Klucel (hydroxypropylcellulose) (HPC) 112 % of control | [4] 103 % of control | [5] 108 % of control

O=C1c2ccccc2CCC1[n+]1ccc2ccccc2c1 (stereo not drawn)
inactive: [12] 102 % of control | [13] 104 % of control | [14] 106 % of control and 111 % of control
